In ChEMBL document CHEMBL1914417 (Bioorg Med Chem Lett, 2011):
Residue numbers refer to the chain shown, from its start. Active and inactive are the calls of the source. The rule behind the calls is not given here.

Columns and labels:
[1] = biological target: Muscarinic acetylcholine receptor M3 (Rattus norvegicus, UniProt P08483); assay: Agonist activity at rat muscarinic M3 receptor expressed in CHO cells; type: functional, cell-based
[2] = biological target: T1, Muscarinic acetylcholine receptor M4 (Rattus norvegicus, UniProt P08485); assay: Agonist activity at rat recombinant muscarinic M4 receptor by HTS cell based assay; type: functional
T1 sequence (P08485 whole entry): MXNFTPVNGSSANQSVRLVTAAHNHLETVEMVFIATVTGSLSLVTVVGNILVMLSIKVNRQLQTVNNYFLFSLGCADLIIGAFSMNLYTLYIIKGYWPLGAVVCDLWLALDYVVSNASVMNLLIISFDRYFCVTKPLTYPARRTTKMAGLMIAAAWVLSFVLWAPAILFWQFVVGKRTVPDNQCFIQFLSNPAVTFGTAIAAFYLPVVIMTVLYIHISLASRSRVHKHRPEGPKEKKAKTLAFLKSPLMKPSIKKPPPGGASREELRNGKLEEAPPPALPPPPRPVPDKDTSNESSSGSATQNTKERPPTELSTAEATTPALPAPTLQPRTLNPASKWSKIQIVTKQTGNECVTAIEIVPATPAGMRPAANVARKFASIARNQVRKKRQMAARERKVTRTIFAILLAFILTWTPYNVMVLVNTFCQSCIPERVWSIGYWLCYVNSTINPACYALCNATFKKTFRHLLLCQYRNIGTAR

[3] = biological target: T2, Muscarinic acetylcholine receptor M2 (Homo sapiens, UniProt P08172); assay: Agonist activity at human recombinant muscarinic M2 receptor by HTS cell based assay; type: functional
T2 sequence (P08172 whole entry): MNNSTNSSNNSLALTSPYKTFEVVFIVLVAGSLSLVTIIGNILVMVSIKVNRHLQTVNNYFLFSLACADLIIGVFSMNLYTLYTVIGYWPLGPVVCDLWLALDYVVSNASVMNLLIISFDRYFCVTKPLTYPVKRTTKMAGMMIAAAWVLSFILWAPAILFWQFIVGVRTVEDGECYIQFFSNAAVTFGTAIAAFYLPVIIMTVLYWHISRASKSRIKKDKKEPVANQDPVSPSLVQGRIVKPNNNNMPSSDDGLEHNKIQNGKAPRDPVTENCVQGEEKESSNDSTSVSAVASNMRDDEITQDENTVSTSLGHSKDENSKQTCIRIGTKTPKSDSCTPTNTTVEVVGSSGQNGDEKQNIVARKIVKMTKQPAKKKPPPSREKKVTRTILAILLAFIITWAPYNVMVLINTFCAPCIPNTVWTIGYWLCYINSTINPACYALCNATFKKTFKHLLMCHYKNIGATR

[4] = biological target: T1, Muscarinic acetylcholine receptor M4; assay: Agonist activity at rat muscarinic M4 receptor expressed in CHO cells; type: functional, cell-based
[5] = biological target: T3, Muscarinic acetylcholine receptor M1 (Homo sapiens, UniProt P11229); assay: Agonist activity at human recombinant muscarinic M1 receptor by HTS cell based assay; type: functional
T3 sequence (P11229 whole entry): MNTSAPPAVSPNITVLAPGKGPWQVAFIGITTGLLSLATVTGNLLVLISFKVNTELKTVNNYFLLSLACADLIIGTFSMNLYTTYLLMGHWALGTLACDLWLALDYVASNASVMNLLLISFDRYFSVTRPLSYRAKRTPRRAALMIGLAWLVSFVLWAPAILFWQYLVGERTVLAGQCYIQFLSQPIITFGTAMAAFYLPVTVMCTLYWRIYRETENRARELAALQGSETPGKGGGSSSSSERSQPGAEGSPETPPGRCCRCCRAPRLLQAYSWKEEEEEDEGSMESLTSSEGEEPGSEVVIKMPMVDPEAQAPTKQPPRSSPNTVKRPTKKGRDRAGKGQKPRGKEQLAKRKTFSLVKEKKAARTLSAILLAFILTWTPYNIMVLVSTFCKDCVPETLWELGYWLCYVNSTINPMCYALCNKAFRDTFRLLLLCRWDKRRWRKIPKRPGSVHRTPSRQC

D(2) dopamine receptor = D(2) dopamine receptor (Homo sapiens, UniProt P14416); assay: Antagonist activity at dopamine D2 receptor; type: functional
Sequence of D(2) dopamine receptor (P14416 whole entry): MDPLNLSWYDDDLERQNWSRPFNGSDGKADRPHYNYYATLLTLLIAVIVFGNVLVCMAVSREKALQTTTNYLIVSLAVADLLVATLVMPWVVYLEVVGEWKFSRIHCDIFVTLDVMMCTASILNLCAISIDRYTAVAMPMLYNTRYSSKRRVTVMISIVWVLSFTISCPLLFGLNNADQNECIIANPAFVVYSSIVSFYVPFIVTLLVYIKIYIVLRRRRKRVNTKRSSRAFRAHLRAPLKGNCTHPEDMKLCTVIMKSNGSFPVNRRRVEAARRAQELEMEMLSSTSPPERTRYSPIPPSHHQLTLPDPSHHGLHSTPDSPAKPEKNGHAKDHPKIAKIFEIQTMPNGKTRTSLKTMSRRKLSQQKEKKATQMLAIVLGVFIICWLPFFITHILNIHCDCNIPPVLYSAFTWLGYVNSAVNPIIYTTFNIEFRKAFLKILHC

[6] = Clearance in rat at 1 mg/kg, iv and 10 mg/kg, po; type: ADME, organism-based; details: in vivo
[7] = Ratio of AUC in brain to AUC in blood in Sprague-Dawley rat at 10 mg/kg, po after 90 mins; type: ADME, organism-based; design: dose 10 mg/kg, route oral; details: read-out: BPR
[8] = AUC in rat at 10 mg/kg, po; type: ADME, organism-based; design: dose 10 mg/kg, route oral; details: plasma
[9] = Drug uptake in Sprague-Dawley rat brain at 10 mg/kg, po after 90 mins; type: ADME, organism-based; design: dose 10 mg/kg, route oral; details: read-out: Drug uptake
[10] = biological target: T4, Muscarinic acetylcholine receptor M1 (Rattus norvegicus) (UniProt P08482); assay: Agonist activity at rat muscarinic M1 receptor expressed in CHO cells at 10 uM; type: functional, cell-based
T4 sequence (whole entry): T3 sequence (P11229 whole entry) with A5V, T254S, P309S, R320K, A337G, I413V

[11] = Half life in rat 1 mg/kg, iv and 10 mg/kg, po; type: ADME, organism-based; details: in vivo
Cytochrome P450 2D6 = Cytochrome P450 2D6 (Homo sapiens, UniProt P10635); assay: Inhibition of CYP2D6; type: ADME
Sequence of Cytochrome P450 2D6 (P10635 whole entry): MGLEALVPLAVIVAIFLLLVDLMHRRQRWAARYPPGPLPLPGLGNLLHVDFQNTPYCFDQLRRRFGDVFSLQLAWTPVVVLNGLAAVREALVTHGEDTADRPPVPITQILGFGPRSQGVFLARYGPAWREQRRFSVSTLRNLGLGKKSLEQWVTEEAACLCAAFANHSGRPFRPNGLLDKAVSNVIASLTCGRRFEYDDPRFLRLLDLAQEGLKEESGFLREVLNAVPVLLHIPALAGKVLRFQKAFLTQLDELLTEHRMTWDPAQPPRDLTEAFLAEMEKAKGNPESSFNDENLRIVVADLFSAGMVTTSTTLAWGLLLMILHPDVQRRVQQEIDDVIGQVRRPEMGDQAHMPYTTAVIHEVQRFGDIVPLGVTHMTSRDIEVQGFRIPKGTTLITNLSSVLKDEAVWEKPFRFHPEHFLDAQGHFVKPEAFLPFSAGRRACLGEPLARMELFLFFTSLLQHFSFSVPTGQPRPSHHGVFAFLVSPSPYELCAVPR

Rattus norvegicus = assay: Oral bioavailability in rat 10 mg/kg; type: ADME, organism-based; details: in vivo
[12] = Volume of distribution at steady state in rat 1 mg/kg, iv and 10 mg/kg, po; type: ADME, organism-based; details: in vivo, read-out: Vdss
Cytochrome P450 2C9 = Cytochrome P450 2C9 (Homo sapiens, UniProt P11712); assay: Inhibition of CYP2C9; type: ADME
Sequence of Cytochrome P450 2C9 (P11712 whole entry): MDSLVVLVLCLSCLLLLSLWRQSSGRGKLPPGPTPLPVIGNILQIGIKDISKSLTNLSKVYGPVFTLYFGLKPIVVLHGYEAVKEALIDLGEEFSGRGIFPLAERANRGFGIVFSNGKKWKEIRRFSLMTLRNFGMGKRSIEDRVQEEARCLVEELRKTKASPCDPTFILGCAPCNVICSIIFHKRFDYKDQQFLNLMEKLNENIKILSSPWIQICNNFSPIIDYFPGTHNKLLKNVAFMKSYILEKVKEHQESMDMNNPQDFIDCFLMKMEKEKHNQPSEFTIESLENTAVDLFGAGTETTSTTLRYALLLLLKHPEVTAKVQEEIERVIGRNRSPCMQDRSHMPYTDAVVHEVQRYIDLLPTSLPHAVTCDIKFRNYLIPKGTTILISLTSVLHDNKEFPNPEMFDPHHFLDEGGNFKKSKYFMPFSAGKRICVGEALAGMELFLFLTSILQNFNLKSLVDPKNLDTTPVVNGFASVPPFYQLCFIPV

[13] = Plasma concentration in Sprague-Dawley rat at 10 mg/kg, po after 90 mins; type: ADME, organism-based; design: dose 10 mg/kg, route oral

Sequence of Muscarinic acetylcholine receptor M3 (P08483 whole entry): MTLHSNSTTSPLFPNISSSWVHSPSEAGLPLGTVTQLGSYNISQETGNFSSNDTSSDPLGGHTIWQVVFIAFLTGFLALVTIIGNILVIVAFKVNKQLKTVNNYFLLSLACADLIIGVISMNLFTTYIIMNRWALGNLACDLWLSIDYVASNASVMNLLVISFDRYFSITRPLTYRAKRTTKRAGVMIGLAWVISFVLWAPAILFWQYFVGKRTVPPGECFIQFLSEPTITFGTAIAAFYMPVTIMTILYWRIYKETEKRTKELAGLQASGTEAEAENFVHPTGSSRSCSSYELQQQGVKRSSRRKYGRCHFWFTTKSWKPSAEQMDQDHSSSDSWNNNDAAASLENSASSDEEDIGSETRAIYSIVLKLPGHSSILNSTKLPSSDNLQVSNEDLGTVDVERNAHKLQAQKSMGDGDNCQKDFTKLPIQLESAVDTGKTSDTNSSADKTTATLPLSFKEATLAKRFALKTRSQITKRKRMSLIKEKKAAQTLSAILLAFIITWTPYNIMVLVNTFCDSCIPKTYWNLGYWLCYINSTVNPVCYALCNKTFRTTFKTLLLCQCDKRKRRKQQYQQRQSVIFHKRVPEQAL

Row | SMILES | EC50 [1] [µM] | EC50 [2] [µM] | EC50 [3] [µM] | EC50 [4] [µM] | EC50 [5] [µM] | IC50 (D(2) dopamine receptor) [µM] | clearance [6] [mL/min/kg] | Kp at 1.5 h [7] | AUC [8] [ng·h/mL] | concentration at 1.5 h [9] [nM] | activation [10] | half-life [11] [min] | IC50 (Cytochrome P450 2D6) [µM] | F (Rattus norvegicus) [%] | Vd [12] [L/kg] | IC50 (Cytochrome P450 2C9) [µM] | concentration at 1.5 h [13] [nM]
1 | CCOC(=O)N1CCC(NCCNC(=O)c2ccccc2C)CC1 | > 30 | > 30 | > 30 | > 30 | 2.3 | 4.5 |  |  |  |  |  |  |  |  |  |  | 
2 | CCOC(=O)N1CCC(N2CCC[C@@H](NC(=O)c3ccccc3C)C2)CC1 | > 30 | > 30 | > 30 | > 30 | 1.3 | > 30 | 14.7 | 1.35 | 4200 | 1890 | Active | 46 | > 25 | 37 | 0.98 | > 25 | 1450
